Assay results taken from BigSolDB 2.1.

O=C(O)CNC(=O)OCc1ccccc1
solubility (mole fraction)
Settings	283.15 K	288.15 K	293.15 K	298.15 K	303.15 K	308.15 K	313.15 K	318.15 K	323.15 K
in 2-butanone	0.0371	0.0437	0.0508	0.0592	0.0692	0.082	0.0966	0.114	0.134
in acetone	0.0617	0.0709	0.0815	0.0942	0.108	0.123	0.14	0.169	0.197
in acetonitrile	0.0106	0.0132	0.0159	0.0198	0.0251	0.032	0.0408	0.052	0.067
in ethanol	0.0415	0.0499	0.0611	0.0767	0.0955	0.11	0.131	0.157	0.186
in ethyl acetate	0.0185	0.0222	0.026	0.0308	0.0369	0.0442	0.053	0.0642	0.0783
in isobutanol	0.0149	0.0188	0.0237	0.0315	0.0394	0.0523	0.0665	0.0853	0.109
in isopropanol	0.0261	0.0338	0.0449	0.0566	0.0707	0.0864	0.108	0.133	0.16
in methanol	0.0654	0.0769	0.0933	0.109	0.123	0.143	0.164	0.19	0.219
in methyl acetate	0.0261	0.0309	0.0366	0.0436	0.053	0.0627	0.0737	0.0902	0.105
in n-butanol	0.0205	0.0257	0.032	0.04	0.0504	0.0627	0.0786	0.0982	0.122
in n-pentanol	0.018	0.0221	0.0275	0.0349	0.0429	0.0578	0.0727	0.0886	0.111
in n-propanol	0.0261	0.0327	0.0399	0.0504	0.0636	0.0794	0.0986	0.122	0.149
